≈ marks a conversion by molar mass, not a printed value. Each block holds one compound with its values, some of them ahead of it. Calls of active or inactive are those of the source. The calls are words filed in the database; no cut-off is given here.
Key:
[1] = target: T1, Bile acid receptor (Homo sapiens) (UniProt Q96RI1); experiment: Antagonist activity at full length human FXR expressed in HeLa cells co-expressing BSEP-pGL3/pSG5-hRXR assessed as inhibition of GW4064-induced receptor activation at 30 uM after 24 hrs by luciferase reporter gene assay; format: cell-based
T1 sequence (whole entry): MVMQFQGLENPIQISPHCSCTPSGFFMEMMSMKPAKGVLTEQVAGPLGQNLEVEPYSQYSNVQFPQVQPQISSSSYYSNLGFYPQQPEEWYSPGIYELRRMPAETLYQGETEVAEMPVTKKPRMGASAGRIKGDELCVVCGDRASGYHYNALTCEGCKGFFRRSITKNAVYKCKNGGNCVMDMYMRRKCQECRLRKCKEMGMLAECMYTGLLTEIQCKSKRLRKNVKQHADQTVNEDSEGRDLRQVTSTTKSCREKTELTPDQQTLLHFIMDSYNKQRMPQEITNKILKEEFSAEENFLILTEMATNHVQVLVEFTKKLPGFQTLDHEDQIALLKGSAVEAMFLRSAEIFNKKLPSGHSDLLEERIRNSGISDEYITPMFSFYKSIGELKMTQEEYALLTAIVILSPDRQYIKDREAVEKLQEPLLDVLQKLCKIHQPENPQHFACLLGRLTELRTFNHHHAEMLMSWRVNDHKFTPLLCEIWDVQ

HepG2 [2] = experiment: Cytotoxicity against human HepG2 cells assessed as reduction in cell viability at 100 uM after 48 hrs by WST1 assay relative to control; format: cell-based; conditions: hepg2, 48 h
[3] = target: T2, Peroxisome proliferator-activated receptor gamma (Homo sapiens) (UniProt P37231); experiment: Antagonist activity at GAL4-fused human PPARgamma LBD expressed in HEK293T cells at 1 uM after 12 to 14 hrs by luciferase reporter gene assay; format: cell-based
T2 sequence (whole entry): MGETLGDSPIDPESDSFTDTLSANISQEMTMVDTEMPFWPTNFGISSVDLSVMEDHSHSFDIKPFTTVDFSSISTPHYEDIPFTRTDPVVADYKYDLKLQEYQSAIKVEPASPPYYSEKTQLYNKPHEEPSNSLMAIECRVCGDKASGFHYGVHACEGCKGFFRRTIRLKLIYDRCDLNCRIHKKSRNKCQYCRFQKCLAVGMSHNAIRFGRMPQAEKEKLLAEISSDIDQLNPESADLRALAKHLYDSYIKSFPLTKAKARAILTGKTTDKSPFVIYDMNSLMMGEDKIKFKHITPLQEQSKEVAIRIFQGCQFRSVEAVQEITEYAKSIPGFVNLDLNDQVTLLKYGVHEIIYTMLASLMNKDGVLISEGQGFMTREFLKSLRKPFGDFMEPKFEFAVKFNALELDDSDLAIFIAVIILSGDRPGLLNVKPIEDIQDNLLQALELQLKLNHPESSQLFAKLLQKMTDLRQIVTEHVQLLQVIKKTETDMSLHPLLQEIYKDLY

HEK293 = experiment: Cytotoxicity against HEK293 cells assessed as reduction in cell viability at >10 uM after 48 hrs by WST1 assay; format: cell-based; conditions: human, hek293, 48 h
[4] = target: T3, Retinoic acid receptor RXR-alpha (Homo sapiens) (UniProt P19793); experiment: Agonist activity at GAL4-fused human RXRalpha LBD expressed in HEK293T cells at 1 uM after 12 to 14 hrs by luciferase reporter gene assay; format: cell-based
T3 sequence (whole entry): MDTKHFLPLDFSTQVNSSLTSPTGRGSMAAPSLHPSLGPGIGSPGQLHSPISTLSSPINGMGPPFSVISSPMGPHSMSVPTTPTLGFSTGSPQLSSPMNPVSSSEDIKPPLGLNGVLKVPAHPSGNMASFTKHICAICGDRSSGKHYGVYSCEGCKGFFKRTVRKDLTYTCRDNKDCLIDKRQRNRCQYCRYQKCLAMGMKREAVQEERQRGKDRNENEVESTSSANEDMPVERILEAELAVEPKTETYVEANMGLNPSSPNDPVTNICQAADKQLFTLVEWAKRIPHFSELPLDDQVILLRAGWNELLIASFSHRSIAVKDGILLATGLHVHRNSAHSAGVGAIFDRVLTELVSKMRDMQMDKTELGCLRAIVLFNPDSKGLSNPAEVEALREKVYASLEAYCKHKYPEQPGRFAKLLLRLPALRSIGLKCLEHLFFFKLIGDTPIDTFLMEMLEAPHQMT

[5] = Metabolic stability in Sprague-Dawley rat liver microsomes assessed as parent compound remaining at 10 uM in presence of NADPH measured after 60 mins by HPLC analysis; format: ADME, microsome; conditions: read-out: Stability
[6] = target: T3, Retinoic acid receptor RXR-alpha (Homo sapiens); experiment: Antagonist activity at GAL4-fused human RXRalpha LBD expressed in HEK293T cells at 1 uM after 12 to 14 hrs by luciferase reporter gene assay; format: cell-based
HeLa = experiment: Cytotoxicity against human HeLa cells co-expressing full length human FXR, BSEP-pGL3 and pSG5-hRXR assessed as reduction in cell viability up to 50 uM after 48 hrs by WST1 assay; format: ADME, cell-based
[7] = target: T4, Nuclear receptor subfamily 1 group I member 3 (Homo sapiens, UniProt Q14994); experiment: Agonist activity at GAL4-fused human CAR LBD expressed in HEK293T cells at 1 uM after 12 to 14 hrs by luciferase reporter gene assay; format: cell-based
T4 sequence (Q14994 whole entry): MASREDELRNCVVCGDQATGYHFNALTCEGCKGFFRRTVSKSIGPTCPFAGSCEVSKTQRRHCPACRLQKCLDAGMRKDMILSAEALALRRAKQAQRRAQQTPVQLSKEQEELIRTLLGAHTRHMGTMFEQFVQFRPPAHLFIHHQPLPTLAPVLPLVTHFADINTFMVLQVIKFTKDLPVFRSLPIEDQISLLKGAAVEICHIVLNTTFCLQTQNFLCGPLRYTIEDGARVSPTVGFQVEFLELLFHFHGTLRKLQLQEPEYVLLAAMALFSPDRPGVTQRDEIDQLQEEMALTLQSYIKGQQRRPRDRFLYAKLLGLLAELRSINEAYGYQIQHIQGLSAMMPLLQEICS

[8] = target: T2, Peroxisome proliferator-activated receptor gamma (Homo sapiens); experiment: Agonist activity at GAL4-fused human PPARgamma LBD expressed in HEK293T cells at 1 uM after 12 to 14 hrs by luciferase reporter gene assay; format: cell-based
[9] = Metabolic stability in Sprague-Dawley rat liver microsomes assessed as parent compound remaining at 10 uM in presence of NADPH measured after 15 mins by HPLC analysis; format: ADME, microsome; conditions: read-out: Stability
[10] = target: T5, Oxysterols receptor LXR-alpha (Homo sapiens) (UniProt Q13133); experiment: Agonist activity at GAL4-fused human LXRalpha LBD expressed in HEK293T cells at 1 uM after 12 to 14 hrs by luciferase reporter gene assay; format: cell-based
T5 sequence (whole entry): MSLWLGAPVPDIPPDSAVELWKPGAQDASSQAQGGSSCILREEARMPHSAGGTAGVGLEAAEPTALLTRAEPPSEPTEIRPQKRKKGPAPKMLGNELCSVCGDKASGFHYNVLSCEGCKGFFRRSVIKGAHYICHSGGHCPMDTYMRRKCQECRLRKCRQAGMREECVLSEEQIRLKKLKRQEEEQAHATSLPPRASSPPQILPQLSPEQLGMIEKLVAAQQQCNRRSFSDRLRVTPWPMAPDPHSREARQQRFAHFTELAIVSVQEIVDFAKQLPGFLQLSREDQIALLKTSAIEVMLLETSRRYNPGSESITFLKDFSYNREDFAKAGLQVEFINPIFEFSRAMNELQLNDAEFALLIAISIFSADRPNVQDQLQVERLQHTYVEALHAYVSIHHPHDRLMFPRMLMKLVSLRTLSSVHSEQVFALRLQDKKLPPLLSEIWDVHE

[11] = target: T4, Nuclear receptor subfamily 1 group I member 3; experiment: Antagonist activity at GAL4-fused human CAR LBD expressed in HEK293T cells at 1 uM after 12 to 14 hrs by luciferase reporter gene assay; format: cell-based
[12] = Aqueous solubility of the compound; format: physicochemical; conditions: water
HepG2 [13] = experiment: Cytotoxicity against human HepG2 cells assessed as reduction in cell viability up to 100 uM after 48 hrs by WST1 assay; format: cell-based; conditions: hepg2, 48 h
[14] = Metabolic stability in Sprague-Dawley rat liver microsomes assessed as parent compound remaining at 10 uM in presence of NADPH measured after 30 mins by HPLC analysis; format: ADME, microsome; conditions: read-out: Stability
[15] = target: T5, Oxysterols receptor LXR-alpha (Homo sapiens); experiment: Antagonist activity at GAL4-fused human LXRalpha LBD expressed in HEK293T cells at 1 uM after 12 to 14 hrs by luciferase reporter gene assay; format: cell-based
[16] = target: Luciferin 4-monooxygenase (Photinus pyralis) (UniProt P08659); experiment: Inhibition of GW4064-induced firefly luciferase expression in HeLa cells co-expressing full length human FXR, BSEP-pGL3 and pSG5-hRXR at 1 uM treated at 23 hrs post GW4064 treatment for 1 hr by luminescence assay; format: cell-based
[17] = Metabolic stability in Sprague-Dawley rat liver microsomes assessed as parent compound remaining at 10 uM in presence of NADPH measured immediately by HPLC analysis; format: ADME, microsome; conditions: read-out: Stability

Sequence of Luciferin 4-monooxygenase (Photinus pyralis) (P08659 whole entry): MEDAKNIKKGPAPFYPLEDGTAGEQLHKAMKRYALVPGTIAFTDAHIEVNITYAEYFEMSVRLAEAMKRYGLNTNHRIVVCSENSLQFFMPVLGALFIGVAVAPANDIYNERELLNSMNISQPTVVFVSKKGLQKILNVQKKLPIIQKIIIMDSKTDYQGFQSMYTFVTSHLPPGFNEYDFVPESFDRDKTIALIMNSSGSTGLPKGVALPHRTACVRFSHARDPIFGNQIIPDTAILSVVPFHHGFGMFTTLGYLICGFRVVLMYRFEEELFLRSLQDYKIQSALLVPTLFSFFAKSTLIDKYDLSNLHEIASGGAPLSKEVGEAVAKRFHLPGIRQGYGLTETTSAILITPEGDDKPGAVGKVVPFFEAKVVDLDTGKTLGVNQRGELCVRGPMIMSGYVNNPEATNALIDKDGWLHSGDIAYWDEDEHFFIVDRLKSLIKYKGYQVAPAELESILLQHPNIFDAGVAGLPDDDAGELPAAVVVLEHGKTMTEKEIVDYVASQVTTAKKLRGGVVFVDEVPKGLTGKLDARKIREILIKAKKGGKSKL

SMILES: O=C(O)Cc1ccc(NC(=O)c2ccccc2-c2ccccc2)cc1
inhibition [1]: inactive

SMILES: CC(C)(C)c1ccc(C(=O)Nc2ccccc2CC(=O)O)cc1
Activity (HepG2 [2]): 118%

inhibition [3]: inactive
Activity [4]: inactive
remaining at 1 h, 10 µM [5]: 97%
inhibition [6]: inactive
Activity [7]: Not Active
Activity [8]: inactive
remaining at 0.25 h, 10 µM [9]: 98%
Activity [10]: inactive
inhibition (INH) [11]: Not Active
solubility [12]: 16 µg/mL (≈ 46.9 µM)
remaining at 0.5 h, 10 µM [14]: 96%
inhibition [15]: inactive
remaining at 0 min, 10 µM [17]: 100%
SMILES: COc1cc(C(C)(C)C)ccc1C(=O)Nc1ccc(CC(=O)O)cc1
Activity (HEK293): Non-Toxic
Activity (HeLa): Non-Toxic
Activity (HepG2 [13]): Non-Toxic
inhibition [16]: inactive

SMILES: COc1cc(C(=O)Nc2ccc(CC(=O)O)cc2)ccc1C(C)(C)C
Activity (HepG2 [2]): 112%

SMILES: CC(C)(C)c1ccc(C(=O)Nc2cccc(CC(=O)O)c2)cc1
inhibition [16]: inactive

SMILES: COc1ccc(C(C)(C)C)cc1C(=O)Nc1ccc(CC(=O)O)cc1
inhibition [1]: inactive

— ChEMBL document CHEMBL4229454, “Structural optimization and in vitro profiling of N-phenylbenzamide-based farnesoid X receptor antagonists” (Bioorg Med Chem, 2018)
